Assay results as given in patent US7470658B2, “Methods for inhibiting tumor metastasis, and peptides useful therefor” (Burnham Institute for Medical Research, priority 1999, dated 2008).

Columns and labels:
[1] = system: E-selectin:IgG; details: comparison value for the heptapeptides; read-out: IC50 by ELISA binding assay using biotinylated sLe^a-PAA and E-selectin:IgG; cited from earlier work
[2] = molecular target: E-selectin; assay: Inhibition of binding between sLe^x-PAA-biotin and E-selectin:IgG by phage or peptides (ELISA); details: synthetic peptides (FIG. 1E); read-out: half inhibition value (IC50) of binding between sLe^x and E-selectin
E-selectin, sequence (P16581 22-175 limits assumed): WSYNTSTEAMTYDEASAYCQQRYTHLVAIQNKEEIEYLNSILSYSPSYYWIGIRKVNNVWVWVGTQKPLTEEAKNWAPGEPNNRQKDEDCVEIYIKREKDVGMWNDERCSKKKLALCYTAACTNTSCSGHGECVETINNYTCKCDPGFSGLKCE
Experimental: The inhibition of binding between sLe^x and E-selectin:IgG by phage or peptides was assayed by adding five hundred ng of polymeric sLe^x (sLe^x-PAA-biotin, GlycoTech, Rocksville, Md.) to wells in the presence or absence of phage or peptide. After incubating at room temperature for 1 hour, wells were washed with TBS containing CaCl2, and sLe^x-PAA-biotin bound to each selectin was determined using the peroxidase conjugated avidin and peroxidase substrate ABTS (Pierce, Rockford, Ill.). The OD405 was read in an ELISA reader. The synthetic peptides used were linear IELLQAR (SEQ ID NO:7), cyclic CIELLQARC (SEQ ID NO:13) (cysteins linked by disulfide bonds are underlined), and IELLQAR (SEQ ID NO:7) multivalent (Fmoc eight branch), which was synthesized by AnaSpec, Inc. (San Jose, Calif.).

[3] = system: mouse B16 melanoma cells; assay: In vivo lung metastasis of B16 melanoma cells transfected with fucosyltransferase-III; details: peptide 500 mg/100 ml/mouse i.v. 20 minutes before 2×10^5 cells; foci counted after 3 weeks (FIG. 2B)
Experimental: (§1) The effect of IELLQAR (SEQ ID NO:7) phage and peptides on E-selectin mediated tumor metastasis was examined using mouse B16 melanoma cells or human melanoma MeWo cells transfected with fucosyltransferase-III, an enzyme which synthesizes sLe^x, as described in Kukowska-Latallo et al., Genes & Develop., 4:1288-1303 (1990). […] To test whether the heptapeptide sequence IELLQAR (SEQ ID NO:7) could inhibit metastasis in vivo, mice were injected with IELLQAR (SEQ ID NO:7) phage and with B16 cells through a tail vein and assayed for the presence of metastatic foci.
(§2) Phage (1×10^8 transducing units/100 ml/mouse) or peptide (500 mg/100 ml/mouse), each of which was equivalent to an amount 100 times the concentration required to inhibit binding between HL-60 to E-selectin determined by the in vitro assay described above in Example II (FIG. 1F), were injected intravenously into female mice (C57 black) that were 5-6 weeks old. The control phage lacks a consensus heptapeptide. The control peptide used in these experiments is MAPS alanine. After 20 minutes, metastatic tumor cells (2×10^5 cells) were administered through a tail vein. After 3 weeks, the numbers of metastatic foci appearing in the lung were counted.

[4] = system: human melanoma MeWo cells; assay: In vivo lung metastasis of human melanoma MeWo cells transfected with fucosyltransferase-III; details: peptide 500 mg/100 ml/mouse i.v. 20 minutes before cells; after 3 weeks (FIG. 2C)
Experimental: as §1, §2

[5] = system: human lung carcinoma HAL-8 cells; assay: In vivo lung metastasis of human lung carcinoma HAL-8 cells; set-up: species or system mouse; details: peptide pre-treatment i.v.
Experimental: as §2
The effect of IELLQAR (SEQ ID NO:7) peptide was assayed in the same manner described above.

[6] = system: vascular endothelial cells of the lung; assay: Mouse lung histochemical analysis after intravenous injection of biotinylated peptide; type: in vivo; details: i.v. injection, one hour, peroxidase conjugated avidin
Text: Control peptide corresponding to MAPS alanine and IELLQAR (SEQ ID NO:7) peptide were biotinylated with biotin succinamide (Sigma, St. Louis, Mo.) and injected intravenously into mice. One hour after injection, mice were sacrificed, and tissues were examined histochemically using peroxidase conjugated avidin (Cappel, West Chester, Pa.) by the peroxidase method (Vectastatin ABC kit, Vector, Burlingame, Calif.).

[7] = system: B16 melanoma cells in the lung; assay: Immunohistochemistry of B16 melanoma cells in the lung (anti-melanoma HMB45); type: in vivo, mouse; details: pre-treated mice, one hour after administration of B16 cells
Experimental: Next, the immunohistochemistry in the mouse lung of melanoma cells injected intravenously was assayed. Mice were injected intravenously with either control phage, IELLQAR (SEQ ID NO:7) phage, control peptide, or IELLQAR (SEQ ID NO:7) peptide, followed by injection with B16 melanoma cells. One hour after administering B16 melanoma cells, the lungs were fixed in 4% paraformaldehyde and paraffin sections were prepared. The melanoma cells in the lung were visualized by immunostaining using anti-melanoma HMB45 mouse monoclonal IgG1 antibody (DAKO, Carpinteria, Calif.) by the peroxidase method (Vectastatin ABC kit, Vector, Burlingame, Calif.).

With `CC(=O)N[C@H]1[C@H](O[C@H]2[C@@H](O)[C@@H](CO)OC(O)[C@@H]2O)O[C@H](CO)[C@@H](O[C@@H]2O[C@H](CO)[C@H](O)[C@H](O[C@]3(C(=O)O)C[C@H](O)[C@@H](NC(C)=O)[C@H]([C@H](O)[C@H](O)CO)O3)[C@H]2O)[C@@H]1O[C@@H]1O[C@@H](C)[C@@H](O)[C@@H](O)[C@@H]1O` (some centres unmarked) [sLe^x oligosaccharide, NeuNAcα2→3Galβ1→4(Fucα1→3)GlcNAcβ1→3Gal] as the compound, how does the IC50 [1] read?
The IC50 was 550 µM.

With “IELLQAR (SEQ ID NO:7) multivalent (Fmoc eight branch) [multivalent IELLQAR peptide, IELLQAR multivalent peptide, Fmoc eight branch MAPS, synthesized by AnaSpec]” as the compound, how does the IC50 [2] read?
Its IC50 is 10 µM.

And the “metastasis of B16 melanoma to the lung, peptide pre-treatment” value [3]?
The value was “effective in preventing metastasis”.

What about the “metastases of human melanoma MeWo cells to the lung” value [4] of the same compound?
The value was “inhibited efficiently”.

What about the “metastases of human lung carcinoma HAL-8 cells to the lung” value [5] of the same compound?
Its value is “inhibited efficiently”.

With “IELLQAR [IELLQAR peptide, synthetic IELLQAR peptide injected into mice]” as the compound, how does the “staining of biotinylated peptide on lung vascular endothelium” value [6] read?
The value was “detected on the vascular surface epithelium of the lung”.

What about the “state of B16 melanoma cells in lung tissue sections” value [7] of the same compound?
Its value is “non-adherent and appeared apoptotic”.

For IELLQAR [linear heptapeptide], which IC50 [2] is on record?
Its IC50 is 200 µM.
